Measured values reported in patent US12540120B2, “Herbicidal compounds” (SYNGENTA CROP PROTECTION AG, priority 2019, dated 2026).

What was measured:
Assay type in all cases: in vivo
[1] = system: Abutilon theophrasti (ABUTH); experiment: B3 Post-Emergence Efficacy—Test 3; settings: post-emergence application, 250 g/ha, evaluated after 13 days (Test 3)
Experimental: (§1) B3 Post-Emergence Efficacy—Test 3 Seeds of a variety of test species are sown in standard soil in pots:—Amaranthus retoflexus (AMARE), Setaria faberi (SETFA), Echinochloa crus-galli (ECHCG), Ipomoea hederacea (IPOHE), Zea Mays (ZEAMX), Abutilon theophrasti (ABUTH). After 8 days cultivation (post-emergence) under controlled conditions in a glasshouse (at 24/16° C., day/night; 14 hours light; 65% humidity), the plants are sprayed with an aqueous spray solution derived from the formulation of the technical active ingredient in acetone/water (50:50) solution containing 0.5% Tween 20 (polyoxyethylene sorbitan monolaurate, CAS RN 9005-64-5). Compounds are applied at 250 g/ha. The test plants are then grown in a glasshouse under controlled conditions in a glasshouse (at 24/16° C., day/night; 14 hours light; 65% humidity) and watered twice daily. After 13 days, the test is evaluated for the percentage damage caused to the plant. The biological activities are assessed on a five point scale (5=80-100%; 4=60-79%; 3=40-59%; 2=20-39%; 1=0-19%). A blank value in the table is indicative that the compound was not tested on that species.

[2] = system: Amaranthus retoflexus (AMARE); experiment: B3 Post-Emergence Efficacy—Test 3; settings: post-emergence application, 250 g/ha, evaluated after 13 days (Test 3)
Experimental: as §1

[3] = system: Ipomoea hederacea (IPOHE); experiment: B3 Post-Emergence Efficacy—Test 3; settings: post-emergence application, 250 g/ha, evaluated after 13 days (Test 3)
Experimental: as §1

Setaria faberi (SETFA) [4] = experiment: B3 Post-Emergence Efficacy—Test 3; settings: post-emergence application, 250 g/ha, evaluated after 13 days (Test 3)
Experimental: as §1

Zea Mays (ZEAMX) [5] = experiment: B3 Post-Emergence Efficacy—Test 3; settings: post-emergence application, 250 g/ha, evaluated after 13 days (Test 3)
Experimental: as §1

[6] = system: Abutilon theophrasti (ABUTH); experiment: B6 Pre-Emergence Efficacy—Test 3; settings: pre-emergence application, 250 g/ha, evaluated after 13 days (Test 3)
Experimental: (§2) B6 Pre-Emergence Efficacy—Test 3 Seeds of a variety of test species were sown in standard soil in pots: Amaranthus retoflexus (AMARE), Setaria faberi (SETFA), Echinochloa crus-galli (ECHCG), Ipomoea hederacea (IPOHE), Zea Mays (ZEAMX), Abutilon theophrasti (ABUTH). After cultivation for one day (pre-emergence) under controlled conditions in a glasshouse (at 24/16° C., day/night; 14 hours light; 65% humidity), the plants were sprayed with an aqueous spray solution derived from the formulation of the technical active ingredient in acetone/water (50:50) solution containing 0.5% Tween 20 (polyoxyethelyene sorbitan monolaurate, CAS RN 9005-64-5). Compounds are applied at 250 g/ha. The test plants were then grown in a glasshouse under controlled conditions (at 24/16° C., day/night; 14 hours light; 65% humidity) and watered twice daily. After 13 days, the test is evaluated for the percentage damage caused to the plant. The biological activities are assessed on a five point scale (5=80-100%; 4=60-79%; 3=40-59%; 2=20-39%; 1=0-19%). A blank value in the table is indicative that the compound was not tested on that species.

[7] = system: Amaranthus retoflexus (AMARE); experiment: B6 Pre-Emergence Efficacy—Test 3; settings: pre-emergence application, 250 g/ha, evaluated after 13 days (Test 3)
Experimental: as §2

[8] = system: Ipomoea hederacea (IPOHE); experiment: B6 Pre-Emergence Efficacy—Test 3; settings: pre-emergence application, 250 g/ha, evaluated after 13 days (Test 3)
Experimental: as §2

Setaria faberi (SETFA) [9] = experiment: B6 Pre-Emergence Efficacy—Test 3; settings: pre-emergence application, 250 g/ha, evaluated after 13 days (Test 3)
Experimental: as §2

Zea Mays (ZEAMX) [10] = experiment: B6 Pre-Emergence Efficacy—Test 3; settings: pre-emergence application, 250 g/ha, evaluated after 13 days (Test 3)
Experimental: as §2

[11] = system: Echinochloa crus-galli (ECHCG); experiment: B6 Pre-Emergence Efficacy—Test 3; settings: pre-emergence application, 250 g/ha, evaluated after 13 days (Test 3)
Experimental: as §2

[12] = system: Amaranthus retoflexus (AMARE); experiment: B2 Post-Emergence Efficacy—Test 2; settings: post-emergence application, 250 g/ha, evaluated after 13 days (Test 2)
How it was run: (§3)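 Post-emergence spray, 250 g/ha, acetone/water 50:50 + 0.5% Tween 20, on 8-day-old pot plants; glasshouse 24/16 °C, 14 h light, 65% RH, watered twice daily. Damage % read at 13 d, scored 1–5 (1=0-19%, 5=80-100%).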

[13] = system: Echinochloa crus-galli (ECHCG); experiment: B2 Post-Emergence Efficacy—Test 2; settings: post-emergence application, 250 g/ha, evaluated after 13 days (Test 2)
How it was run: as §3

[14] = system: Ipomoea hederacea (IPOHE); experiment: B2 Post-Emergence Efficacy—Test 2; settings: post-emergence application, 250 g/ha, evaluated after 13 days (Test 2)
How it was run: as §3

Lolium perenne (LOLPE) [15] = experiment: B2 Post-Emergence Efficacy—Test 2; settings: post-emergence application, 250 g/ha, evaluated after 13 days (Test 2)
How it was run: as §3

Setaria faberi (SETFA) [16] = experiment: B2 Post-Emergence Efficacy—Test 2; settings: post-emergence application, 250 g/ha, evaluated after 13 days (Test 2)
How it was run: as §3

Solanum nigrum (SOLNI) [17] = experiment: B2 Post-Emergence Efficacy—Test 2; settings: post-emergence application, 250 g/ha, evaluated after 13 days (Test 2)
How it was run: as §3

[18] = system: Amaranthus retoflexus (AMARE); experiment: B5 Pre-Emergence Efficacy—Test 2; settings: 250 g/ha, evaluated after 13 days
How it was run: (§4)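 Scores are percentage plant damage on a five-point scale (5=80-100%; 4=60-79%; 3=40-59%; 2=20-39%; 1=0-19%), taken 13 days after a pre-emergence spray of 250 g/ha. Sowing preceded spraying by one day; glasshouse at 24/16 °C, 65% humidity.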

Solanum nigrum (SOLNI) [19] = experiment: B5 Pre-Emergence Efficacy—Test 2; settings: 250 g/ha, evaluated after 13 days
How it was run: as §4

[20] = system: Echinochloa crus-galli (ECHCG); experiment: B5 Pre-Emergence Efficacy—Test 2; design: key: 5-point scale: 5=80-100%, 4=60-79%, 3=40-59%, 2=20-39%, 1=0-19% damage; settings: 250 g/ha, evaluated after 13 days
How it was run: as §4

[21] = system: Ipomoea hederacea (IPOHE); experiment: B5 Pre-Emergence Efficacy—Test 2; design: key: 5-point scale: 5=80-100%, 4=60-79%, 3=40-59%, 2=20-39%, 1=0-19% damage; settings: 250 g/ha, evaluated after 13 days
How it was run: as §4

Lolium perenne (LOLPE) [22] = experiment: B5 Pre-Emergence Efficacy—Test 2; design: key: 5-point scale: 5=80-100%, 4=60-79%, 3=40-59%, 2=20-39%, 1=0-19% damage; settings: 250 g/ha, evaluated after 13 days
How it was run: as §4

Setaria faberi (SETFA) [23] = experiment: B5 Pre-Emergence Efficacy—Test 2; design: key: 5-point scale: 5=80-100%, 4=60-79%, 3=40-59%, 2=20-39%, 1=0-19% damage; settings: 250 g/ha, evaluated after 13 days
How it was run: as §4

Structure (SMILES)	percentage damage caused to the plant, five point scale, ABUTH [1]	percentage damage caused to the plant, five point scale, AMARE [2]	percentage damage caused to the plant, five point scale, IPOHE [3]	percentage damage caused to the plant, five point scale, SETFA (Setaria faberi (SETFA) [4])	percentage damage caused to the plant, five point scale, ZEAMX (Zea Mays (ZEAMX) [5])	percentage damage caused to the plant, five point scale, ABUTH [6]	percentage damage caused to the plant, five point scale, AMARE [7]	percentage damage caused to the plant, five point scale, IPOHE [8]	percentage damage caused to the plant, five point scale, SETFA (Setaria faberi (SETFA) [9])	percentage damage caused to the plant, five point scale, ZEAMX (Zea Mays (ZEAMX) [10])	percentage damage caused to the plant, five point scale, AMARE [12]	percentage damage caused to the plant, five point scale, ECHCG [13]	percentage damage caused to the plant, five point scale, IPOHE [14]	percentage damage caused to the plant, five point scale, LOLPE (Lolium perenne (LOLPE) [15])	percentage damage caused to the plant, five point scale, SETFA (Setaria faberi (SETFA) [16])	percentage damage caused to the plant, five point scale, SOLNI (Solanum nigrum (SOLNI) [17])	Control of weed species after pre-emergence application, AMARE (percentage damage, five point scale) [18]	Control of weed species after pre-emergence application, SOLNI (percentage damage, five point scale) (Solanum nigrum (SOLNI) [19])	Control of weed species after pre-emergence application, ECHCG (percentage damage, five point scale) [20]	Control of weed species after pre-emergence application, IPOHE (percentage damage, five point scale) [21]	further results
CNS(=O)(=O)c1ccc(CCc2c(Cl)ccc(F)c2-c2c(O)c(C)nn(C)c2=O)cc1 [Compound A-1.390]	4 (4=60-79%)	5 (5=80-100%)	4 (4=60-79%)	5 (5=80-100%)	1 (1=0-19%)	5 (5=80-100%)	5 (5=80-100%)	5 (5=80-100%)	5 (5=80-100%)	1 (1=0-19%)	–	–	–	–	–	–	–	–	–	–	–
Cc1nn(C)c(=O)c(-c2c(F)ccc(Cl)c2CCc2ccc(S(N)(=O)=O)cc2)c1O [Compound A-1.391]	2 (2=20-39%)	4 (4=60-79%)	3 (3=40-59%)	4 (4=60-79%)	1 (1=0-19%)	2 (2=20-39%)	5 (5=80-100%)	2 (2=20-39%)	5 (5=80-100%)	0	–	–	–	–	–	–	–	–	–	–	–
Cc1nn(C)c(=O)c(-c2c(F)ccc(Cl)c2CCc2ccc(C(N)=O)cc2)c1O [Compound A-1.392]	4 (4=60-79%)	5 (5=80-100%)	3 (3=40-59%)	5 (5=80-100%)	2 (2=20-39%)	5 (5=80-100%)	5 (5=80-100%)	5 (5=80-100%)	5 (5=80-100%)	2 (2=20-39%)	–	–	–	–	–	–	–	–	–	–	percentage damage caused to the plant, five point scale, ECHCG [11]: 5 (5=80-100%)
Cc1nn(C)c(=O)c(-c2c(F)ccc(Cl)c2/C=C/c2ccc(OC(C)(C)C)cc2)c1OC(=O)C(C)C [Compound A-4.035]	–	–	–	–	–	–	–	–	–	–	1 (1=0-19%)	0	3 (3=40-59%)	0	0	3 (3=40-59%)	0	0	1 (1=0-19%)	1 (1=0-19%)	Control of weed species after pre-emergence application, LOLPE (percentage damage, five point scale) (Lolium perenne (LOLPE) [22]): 1 (1=0-19%); Control of weed species after pre-emergence application, SETFA (percentage damage, five point scale) (Setaria faberi (SETFA) [23]): 0
Cc1nn(C)c(=O)c(-c2c(F)ccc(Cl)c2/C=C/c2ccc(C#N)cc2)c1OC(=O)C(C)C [Compound A-4.036, [5-[3-Chloro-2-[(E)-2-(4-cyanophenyl)vinyl]-6-fluoro-phenyl]-1,3-dimethyl-6-oxo-pyridazin-4-yl] 2-methylpropanoate]	–	–	–	–	–	–	–	–	–	–	2 (2=20-39%)	3 (3=40-59%)	4 (4=60-79%)	3 (3=40-59%)	1 (1=0-19%)	5 (5=80-100%)	2 (2=20-39%)	5 (5=80-100%)	1 (1=0-19%)	3 (3=40-59%)	Control of weed species after pre-emergence application, LOLPE (percentage damage, five point scale) (Lolium perenne (LOLPE) [22]): 1 (1=0-19%); Control of weed species after pre-emergence application, SETFA (percentage damage, five point scale) (Setaria faberi (SETFA) [23]): 0
Cc1nn(C)c(=O)c(-c2c(F)ccc(Cl)c2/C=C/c2ccc(C3CC3)cc2)c1OC(=O)C(C)C [Compound A-4.038, [5-[3-chloro-2-[(E)-2-(4-cyclopropylphenyl)vinyl]-6-fluoro-phenyl]-1,3-dimethyl-6-oxo-pyridazin-4-yl] 2-methylpropanoate]	–	–	–	–	–	–	–	–	–	–	1 (1=0-19%)	1 (1=0-19%)	2 (2=20-39%)	1 (1=0-19%)	0	5 (5=80-100%)	2 (2=20-39%)	1 (1=0-19%)	0	0	Control of weed species after pre-emergence application, LOLPE (percentage damage, five point scale) (Lolium perenne (LOLPE) [22]): 0; Control of weed species after pre-emergence application, SETFA (percentage damage, five point scale) (Setaria faberi (SETFA) [23]): 0
